Data published in patent publication US10087156B2, “Methods and compositions related to retinoid receptor-selective pathway” (Sanford Burnham Prebys Medical Discovery Institute, priority 2010, dated 2018).

Experiments:
[1] = Preclinical toxicity study; type: in vivo
Method: Preclinical studies of K-80003 were performed, including the investigation of toxicity, bioavailability, and pharmacokinetics.

[2] = test system: RXRα/Δ80 tumor; assay: RXRα/Δ80 tumor growth in animals; type: in vivo; settings: mice, 60 mg/kg intraperitoneally, two weeks
Method: Mice (n=6) were treated intraperitoneally with corn oil, Sulindac (60 mg/kg), or K-80003 (60 mg/kg) for two weeks. Tumors were removed and measured. […] Together, the RXRα-selective Sulindac analog K-80003 is a potent inhibitor of RXRα-mediated PI3K/AKT signaling and cancer cell growth.

[3] = test system: HepG2 cells; assay: Bax activation by Bax/6A7 immunostaining; type: cell-based
Method: Activation of Bax by Sulindac and TNFα. HepG2 cells treated with TNFα and/or Sulindac were immunostained with Bax/6A7 antibody. […] HepG2 cells treated with TNFα or Sulindac alone or together were examined for Bax activation by immunostaining using conformation-sensitive Bax/6A7 antibody. Significant Bax staining was observed only when cells were treated with both TNFα and Sulindac (FIG. 6E). Cross-talk between extrinsic and intrinsic apoptotic pathways can be linked through Bid cleavage and activation (Li et al., Cell 94 (4), 491-501 (1998)). […] PC3 cells transfected with CA-AKT or DN-AKT were treated with TNFα and/or Sulindac, and analyzed by immunoblotting (FIG. 6F). Activation of caspase-8 (FIG. 6G) and Bax (FIG. 6H) by Sulindac and TNFα. HepG2 cells transfected with CA-AKT were treated with TNFα and Sulindac, and immunostained with anti-cleaved caspase-8 or Bax/6A7 antibody. […] Sulindac/TNFα-induced PARP cleavage was inhibited by transfection of constitutive-active AKT (CA-AKT) but enhanced by transfection of dominant-negative AKT (DN-AKT) (FIG. 6F). Consistently, induction of apoptosis (FIG. 17B) and activation of caspase-8 (FIG. 6G) and Bax (FIG. 6H) by Sulindac/TNFα combination was inhibited by CA-AKT.

| SMILES | toxicity [1] | inhibition of RXRα/Δ80 tumor growth, compared with Sulindac [2] | cells showing Bax staining, Sulindac/TNFα ([3]; Bax/6A7 antibody) | cells exhibiting Bax staining, CA-AKT-transfected ([3]; TNFα and Sulindac) | cells exhibiting Bax staining, nontransfected ([3]; TNFα and Sulindac) |
| --- | --- | --- | --- | --- | --- |
| CC1=C(CC(=O)O)c2cc(F)ccc2/C1=C\c1ccc(C(C)C)cc1 [K-80003, (Z)-2-(3-(4-Iso-propylbenzylidene)-6-fluoro-2-methyl-3H-inden-1-yl)acetic acid] | very low toxicity | much more potent inhibitory effect than Sulindac |  |  |  |
| CSc1ccc(/C=C2/C(C)=C(CC(=O)O)c3cc(F)ccc32)cc1 [Sulindac, (Z)-2-(3-(4-(Methylthio)benzylidene)-6-fluoro-2-methyl-3H-inden-1-yl)acetic acid] |  |  | about 60% | about 13% | About 60% |
